Earlier results, collected in patent US20220347185A1, “IBOGAINE FORMULATIONS” (CAAMTECH, INC., priority 2019, published 2022).

Tests used:
humans = conditions: Mash et al. 2000
rats = conditions: single dose, Rodriguez et al. 2020
heroin addicts = conditions: 1962
[1] = Dzoljic et al. 1988
mice = conditions: da Silva et al. 2006

| SMILES | depressive symptoms (humans) | antidepressant effects (rats) | effectiveness of multiple administrations versus a single dose (rats and mice; additional study results) | self-administration of opiates (rats and mice; rats and mice) | cravings and withdrawal symptoms (heroin addicts) | withdrawal from narcotics addiction [1] | treating substance addiction (review papers and meta-analyses) | treating opioid addiction (several current studies) | anticonvulsive effect (mice) | antidepressive effect (mice) | anxiolytic effect (mice) |
| --- | --- | --- | --- | --- | --- | --- | --- | --- | --- | --- | --- |
| CC[C@H]1C[C@@H]2C[C@H]3c4[nH]c5ccc(OC)cc5c4CCN(C2)[C@@H]13 [ibogaine] | significantly decreased depressive symptoms | caused antidepressant effects | more effective in multiple administrations over time than from a single dose | reduce or interrupt the self-administration of opiates | marked reductions in their cravings and withdrawal symptoms | relieve withdrawal from narcotics addiction | effective for treating substance addiction | effective for treating opioid addiction | – | – | – |
| CC[C@H]1C[C@@H]2C[C@H]3c4[nH]c5ccc(O)cc5c4CCN(C2)[C@@H]13 [noribogaine] | – | caused antidepressant effects | – | – | – | – | – | – | – | – | – |
| CO[C@H]1C=C2[C@H]3CN(Cc4cc5c(cc43)OCO5)[C@H]2C[C@@H]1O [montanine] | – | – | – | – | – | – | – | – | anticonvulsive | antidepressive effects | anxiolytic |
